Entries after “also recorded” stand apart in the source; their conditions may differ.
Assays:
Assay type in all cases: physicochemical
[1] = Additional form conversion experiments (heating, slurry), XRPD
Protocol: (§1) All of the solid samples generated in the polymorph screen were analyzed by XRPD. XRPD analysis was conducted on a PANalytical Empyrean or a Thermo ARL X'TRA X-ray powder diffractometer using Cu Kα radiation at 1.54 Å.

[2] = Dynamic Vapor Sorption (DVS) hygroscopicity; conditions: for total mass change between 0% and 90% relative humidity: DVS at 25° C., 0% to 90% RH; for hygroscopicity: DVS, 0% to 90% relative humidity; for XRPD pattern after adsorption/desorption cycles: after DVS
Protocol: Hygroscopicity was determined on a Surface Measurement Systems DVS. Typically a sample size of 5-30 mg was loaded into the DVS instrument sample pan and the sample was analyzed on a DVS automated sorption analyzer at 25° C. The relative humidity was increased from 0% to 90% RH at 10% RH step. The relative humidity was then decreased in a similar manner to accomplish a full adsorption/desorption cycle.

[3] = Equilibration (slurry) of solid forms in batch solvents, solid analyzed by XRPD
Protocol: Equilibration studies using single, binary and ternary combinations of batch solvents (water, acetone, and acetonitrile) were investigated to mimic key steps in manufacturing 3-(4-nitro-1-oxoisoindolin-2-yl)piperidine-2,6-dione. Materials of 3-(4-nitro-1-oxoisoindolin-2-yl)piperidine-2,6-dione and solvent or solvent mixtures were added to a glass vial to achieve free-flowing slurry and allowed to equilibrate at the specified temperature. […] The solid phase was then dried under air and analyzed by XRPD.
A total of four batches of 3-(4-nitro-1-oxoisoindolin-2-yl)piperidine-2,6-dione were characterized by XRPD, DSC, TGA, ATR-FTIR and DVS, as described in section 6.5. The solid form represented by the batch 1 was designated as Form A; the solid form represented by the batch 4 was designated as Form B; the batches 2 and 3 were determined to be mixtures of Forms A and B, with Form B dominating the patterns. The equilibration experiments were performed using batches 2, 3 and 4, and the results are described in Table 2.
as §1

| form conversion ([1]; ambient temperature, NMP/acetone/water (1:2.5:2.5), time not stated) | XRPD Result ([1]; slurry in NMP/Acetone/water at ambient for 5 days) | XRPD Result ([1]; slurry in NMP/Acetone/water at ambient for 10 days) | total mass change between 0% and 90% relative humidity [2] [%] | hygroscopicity [2] | XRPD pattern after adsorption/desorption cycles [2] | conversion to other forms ([3]; form conversion studies) | relative thermodynamic stability of the form ([3]; form conversion studies) | Form by XRPD ([3]; equilibration in acetone, ambient, 8 days) | Form by XRPD ([3]; equilibration in acetone/water (1:1), ambient, 8 days) | Form by XRPD ([3]; equilibration in acetonitrile, 80° C. (or reflux), 6 hours) | Form by XRPD ([3]; equilibration in acetonitrile/water (1:1), ambient, 8 days) | Form by XRPD ([3]; equilibration in acetonitrile/water (2:1), 60° C., 6 hours) | Form by XRPD ([3]; equilibration in acetonitrile/water/acetone (1:1:1), ambient, 8 days) | Form by XRPD ([3]; equilibration in water, ambient, 8 days) | SMILES | XRPD Result ([1]; heated to 220° C. for 4 hours) |
| --- | --- | --- | --- | --- | --- | --- | --- | --- | --- | --- | --- | --- | --- | --- | --- | --- |
| converts to Form A | Form A + C | Form A + C | 0.43 | not hygroscopic | no change |  |  |  |  |  |  |  |  |  | O=C1CCC(N2Cc3c(cccc3[N+](=O)[O-])C2=O)C(=O)N1 (single isomer, unassigned) [Form C, 3-(4-nitro-1-oxoisoindolin-2-yl)piperidine-2,6-dione] | partially converts to Form A; also recorded: Form A + C |
|  |  |  | 0.42 | not hygroscopic | no change | no conversion | most thermodynamically stable form |  |  |  |  |  |  |  | O=C1CCC(N2Cc3c(cccc3[N+](=O)[O-])C2=O)C(=O)N1 (single isomer, unassigned) [Form A, 3-(4-nitro-1-oxoisoindolin-2-yl)piperidine-2,6-dione] |  |
|  |  |  | 0.39 | not hygroscopic | no change |  |  | converts to Form A | converts to Form A | converts to Form A | converts to Form A | converts to Form A | converts to Form A | converts to Form A | O=C1CCC(N2Cc3c(cccc3[N+](=O)[O-])C2=O)C(=O)N1 (single isomer, unassigned) [Form B, 3-(4-nitro-1-oxoisoindolin-2-yl)piperidine-2,6-dione] | converts to Form A |

Reference: patent US9085551B2, “Solid forms of 3-(4-nitro-1-oxisoindolin-2-yl)piperidine-2,6-dione” (Celgene Corporation, priority 2012, dated 2015)
